From patent publication US20050119318A1, “Inhibitors of HCV replication” (priority 2003, published 2005)

What was measured:
[1] = molecular target: T1, HCV NS5B RdRp genotype 1b (Hepatitis C virus genotype 1b, UniProt Q9WMX2); assay: HCV NS5B RdRp enzyme assay; type: biochemical; settings: HCV RdRp genotype 1b enzyme; read-out: RdRp Inhibition Range, IC50
T1 construct: The protein was expressed with an 18 amino acid C-terminal truncation to enhance the solubility; made in house; host or cells: E. coli BL21(DE3)
T1 sequence (Q9WMX2 2420-2992): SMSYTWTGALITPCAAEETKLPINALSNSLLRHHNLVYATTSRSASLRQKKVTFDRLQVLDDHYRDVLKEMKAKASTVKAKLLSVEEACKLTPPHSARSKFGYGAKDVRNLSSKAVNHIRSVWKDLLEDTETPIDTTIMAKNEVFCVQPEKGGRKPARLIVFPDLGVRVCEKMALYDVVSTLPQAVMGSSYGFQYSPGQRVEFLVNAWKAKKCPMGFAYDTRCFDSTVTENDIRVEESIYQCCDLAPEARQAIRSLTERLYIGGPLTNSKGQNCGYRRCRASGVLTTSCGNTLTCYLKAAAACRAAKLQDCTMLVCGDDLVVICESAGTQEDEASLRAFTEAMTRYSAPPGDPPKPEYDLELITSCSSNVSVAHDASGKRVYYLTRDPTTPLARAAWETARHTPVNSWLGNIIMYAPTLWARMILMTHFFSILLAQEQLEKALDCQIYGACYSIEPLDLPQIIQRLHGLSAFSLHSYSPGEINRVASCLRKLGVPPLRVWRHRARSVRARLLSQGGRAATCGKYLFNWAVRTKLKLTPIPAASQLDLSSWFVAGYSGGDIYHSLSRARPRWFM
Procedure: HCV NS5B RdRp cloning, expression, and purification. The cDNA encoding the NS5B protein of HCV, genotype 1b, was cloned into the pET21a expression vector. The protein was expressed with an 18 amino acid C-terminal truncation to enhance the solubility. The E. coli competent cell line BL21(DE3) was used for expression of the protein. Cultures were grown at 37° C. for ˜4 hours until the cultures reached an optical density of 2.0 at 600 nm. The cultures were cooled to 20° C. and induced with 1 mM IPTG. Fresh ampicillin was added to a final concentration of 50 μg/ml and the cells were grown overnight at 20° C.
Cell pellets (3 L) were lysed for purification to yield 15-24 mgs of purified NS5B. The lysis buffer consisted of 20 mM Tris-HCl, pH 7.4, 500 mM NaCl, 0.5% triton X-100, 1 mM DTT, 1 mM EDTA, 20% glycerol, 0.5 mg/ml lysozyme, 10 mM MgCl2, 15 ug/ml deoxyribonuclease I, and Complete TM protease inhibitor tablets (Roche). After addition of the lysis buffer, frozen cell pellets were resuspended using a tissue homogenizer. To reduce the viscosity of the sample, aliquots of the lysate were sonicated on ice using a microtip attached to a Branson sonicator. The sonicated lysate was centrifuged at 100,000×g for 1 hr at 4° C. and filtered through a 0.2 μm filter unit (Corning). […]
HCV NS5B RdRp enzyme assay. […] Plates were read on a Packard Top Count NXT. […]

HCV replicon = HCV replicon FRET assay (HCV RdRp cell line); type: cell-based; settings: Hepatitis C virus, read-out: RdRp Inhibition Range, EC50
Excerpt: FRET Assay Preparation. To perform the HCV FRET screening assay, 96-well cell culture plates were used. The FRET peptide (Anaspec, Inc.) (Taliani et al., Anal. Biochem. 240:60-67 (1996), expressly incorporated by reference in its entirety) contains a fluorescence donor, EDANS, near one end of the peptide and an acceptor, DABCYL, near the other end. The fluorescence of the peptide is quenched by […] resonance energy transfer (RET) between the donor and the acceptor, but as the NS3 protease cleaves the peptide the products are released from RET quenching and the fluorescence of the donor becomes apparent. […]
FRET Assay and Cytotoxicity Assay. […] After reading in a Cytoflour 4000 instrument (PE Biosystems), plates were rinsed with PBS and then used for FRET assay by the addition of 30 ul of the FRET peptide assay reagent described above (FRET Assay Preparation) per well. The plate was then placed into the Cytoflour 4000 instrument which had been set to 340 excite/490 emission, automatic mode for 20 cycles and the plate read in a kinetic mode. Typically, the signal to noise using an endpoint analysis after the reads was at least three-fold.
Compound analysis was determined by quantification of the relative HCV replicon inhibition and the relative cytotoxicity values. […]

**Q.** What does the source list for `Cn1c(-c2ccoc2)c(C2CCCCC2)c2ccc(C(=O)Nc3nnn[nH]3)cc21` [Compound 1]?
**A.** IC50 [1]: 100 to 1000 nM; EC50 (HCV replicon): < 5000 nM

**Q.** Which IC50 [1] does the source give for `Cn1c(-c2ccoc2)c(C2CCCCC2)c2ccc(-c3nnn[nH]3)cc21` [Compound 2] here?
**A.** 100 to 1000 nM

**Q.** And the EC50 (HCV replicon)?
**A.** 5000 to 10000 nM
